This is an account of results in patent US9539223B2, “Methods for treating bacterial infections” (Neoculi Pty Ltd., priority 2013, dated 2017).

In brackets after ≈: the same amount, converted by molar mass. Several values for one entry are separate records, joined by “and”; a condition that tells them apart may be missing. Identical values can stand only once.

Assay [1] deals with methicillin-resistant and methicillin-susceptible Staphylococcus aureus. The assay can be described thus: MIC by broth microdilution (CLSI), S. aureus clinical isolates. The class given is cell-based. Conditions: positive control. Background: In broth dilution the organism is exposed to a series of concentrations in liquid medium.
Protocol: Microtiter plates containing two-fold dilutions of each antimicrobial agent were inoculated with ˜10^5-CFU/ml of each isolate in a 100-μl final volume. Plates were incubated for 24-h at 37° C. Turbidity (absorbance at OD600) was measured using a Bio-Rad Benchmark Plus microplate spectrophotometer in Microplate Manager® version 5.2.1 (Bio-Rad). Minimum inhibitory concentration (MIC) endpoints were defined as the lowest antimicrobial concentration assessed by the spectrophotometer that inhibited bacterial growth. ATCC 49775 was included in the isolate collection as a control organism using breakpoints defined by the CLSI. The MIC50, MIC90 (concentrations that inhibited growth of the lower 50% and 90% of total organisms, respectively), and MIC range (minimum and maximum) were calculated to profile the antimicrobial susceptibility of the isolate collection.
The test system of assay [2] is S. pneumoniae. The assay can be described thus: MBC, pneumococcal isolates. The class given is cell-based, Streptococcus pneumoniae. Particulars: isolate WCH16. The procedure:
(§1) [Micro-broth dilutions and 96-well trays are prepared by the following method: 90 μL of 4% LHB: CAMHB is aliquotted into all wells using a multichannel pipette. 90 μl of working antimicrobial stocks were no serial diluted down the tray by a 1:2 dilution. Negative broth controls and dilution control were taken into account when planning the set up of a 96-well tray.] 10 μL of bacterial suspension was then added to the appropriate wells in the 96 well tray. Appropriate positive (no antimicrobial), negative (no antimicrobial or bacteria) and negative dilution (a serial dilution control of antimicrobial and broth) controls were included in each assay. […] The MBC was determined by a 99.95% inhibition of S. pneumoniae, taking into account the dilution factor. MICs and MBCs were determined in quadruplicate and the mode was taken as the representative value. The MIC50, MIC90 and MIC range and MBC50, MBC90 and MBC range were determined according to CLSI standards. The MIC50 and MIC90, or MBC50 and MBC90, are defined by the lowest concentrations which, when all the MICs and MBCs of the isolates are arranged from lowest to highest, inhibited the 50th and 90th percentile of the total amount of isolates, respectively.

Assay [3] has as its system S. pneumoniae. The assay can be described thus: MIC by micro-broth dilution, pneumococcal isolates. It is filed as cell-based, Streptococcus pneumoniae. The procedure: as §1
Assay [4] deals with methicillin-resistant Staphylococcus aureus (MRSA). As to the kind of experiment: Minimum inhibitory concentration assay (CLSI), MRSA isolates. It is filed as cell-based. Particulars: ATCC control strains.
Protocol: Minimum inhibitory concentration tests were performed according to CLSI Standards (CLSI 2008). […] The solutions were then serially diluted across the row, leaving 2 columns for positive and negative controls. A bacterial suspension was prepared by adding fresh colonies obtained from an overnight culture on Sheep Blood Agar (SBA) to a 9.1 g/L saline solution. This suspension was adjusted to a concentration of between 4×10^8 and 5×10^8 CFU/mL. Concentration of the suspension was determined by measuring optical density (OD) using a spectrophotometer at a wavelength of 600 nm where the correct concentration was determined to have an optical density of between 1.00 and 1.20. One milliliter of this suspension was added to 9 mL of saline before being added to all wells, excluding the negative control wells, in 10 μL volumes giving a final concentration of between 4×10^5 and 5×10^5 CFU/mL in each well. The tests were then incubated for 24 hours at 37° C. and then assessed both visually and using OD readings from a microplate reader at a wavelength of 600 nm. These tests were performed in duplicate but repeated if discrepancies were observed.
The minimum inhibitory concentration (MIC) was determined to be the lowest concentration of antibiotic that prevented growth of bacteria both visually and using OD readings.
Another assay relates to S. aureus strain T3-29. As to the kind of experiment: Checkerboard synergy study, S. aureus T3-29. The class given is cell-based, Staphylococcus aureus. As to the method: (§2) Firstly, the MIC of each antibiotic alone was determined in accordance to CLSI standard guidelines.
(§3) According to the checkerboard guidelines, Synergy (S) was defined as an FICI<0.5. No effect (NE) was defined as 0.5<FICI<4. Antagonism (A) was defined as a 4<FICI.

The test system of assay [5] is Staphylococcus spp. Strain MK1. As to the kind of experiment: Checkerboard synergy study, Staphylococcus spp. MK1. It is filed as cell-based. Details: key to FIC1 (last-but-one column; FIC index of antibiotic + NCL812): FICI: <0.5 synergy, 0.5-4 no effect, >4 antagonism. Particulars: Staphylococcus spp. Strain MK1. The procedure:
as §2, §3

Assay [6] relates to S. aureus ATCC 29213. The assay can be described thus: MIC assay (CLSI M07-A8) in Mueller Hinton II Broth. It is filed as cell-based, Staphylococcus aureus. Particulars: S. aureus ATCC 29213, quality control agent.
Description: The MIC assay method followed the procedure described by the Clinical and Laboratory Standards Institute, or CLSI (Clinical and Laboratory Standards Institute). […] The medium employed for the MIC assay was Mueller Hinton II Broth (MHB II—Becton Dickinson, Sparks, Md.; Cat No 212322; Lot 9044411). S. aureus ATCC 29213 served as the quality control strain, and linezolid was utilized as the quality control antibiotic to validate the assay.
Assay [7] relates to S. aureus ATCC 29213. As to the kind of experiment: ATP release assay (CellTiter-Glo). It is filed as cell-based, Staphylococcus aureus. Conditions: 8-fold the MIC (256 μg/ml), 30 min exposure. The text has this:
The CellTiter-Glo Luminescent Cell Viability Assay (Promega) was utilized to measure the leakage of ATP from bacteria. […] The negative control received 2% DMSO, which represented the final DMSO concentration in each assay. […] Results were expressed as ATP concentration released to the medium (μM).
(ATP-based viability assays read luminescence as a measure of living cells.)

As usually defined, the MIC50 is an inhibitory concentration at the 50% level, which refers to growth in some studies and to a panel of isolates in others. The MIC90 is the lowest concentration that inhibits either 90% of growth or 90% of the strains tested, depending on the study. Turning to `CC1(C)S[C@@H]2[C@H](NC(=O)[C@H](N)c3ccccc3)C(=O)N2[C@H]1C(=O)O` [Ampicillin], the “MIC values against CLSI guidelines” value in assay [1] was “within the normal range expected”. Further, the MBC entry against S. pneumoniae [2] is reported as “Autolysis”. The “MIC Range” value against S. pneumoniae [3] (20 S. pneumoniae strains) fell in the range of 0.011 to 0.09 µg/mL. The MIC in the assay on S. pneumoniae [3] (Streptococcus pneumoniae) worked out at 0.023 µg/mL (≈ 0.0658 µM); against S. pneumoniae [3] (isolate EF3030), 0.023; against S. pneumoniae [3] (isolate WCH184) it was 0.045. In the assay on S. pneumoniae [3] (Streptococcus pneumoniae), this compound had an MIC50 of 0.023 µg/mL (≈ 0.0658 µM). In addition, the MIC90 in the assay with S. pneumoniae [3] (Streptococcus pneumoniae) came out at 0.023 µg/mL (≈ 0.0658 µM). Further, in assay [4], the “MIC values against CLSI recommendations” value is on record as “within the normal range expected”. Besides, the “Result (interaction of antibiotic with NCL812)” value (from here on “Result”) in the assay on S. aureus strain T3-29 is on record as “NE (No effect (NE) was defined as 0.5<FICI<4)”.

With `O=C(N[C@H](CO)[C@H](O)c1ccc([N+](=O)[O-])cc1)C(Cl)Cl` [Chloramphenicol, chloramphenicol], in the assay on S. aureus strain T3-29, the “FIC1 (last-but-one column; FIC index of antibiotic + NCL812)” value stood at 0.75 and the “Result” value is “NE (No effect (NE) was defined as 0.5<FICI<4)”.

For `O=C(O)c1cn(C2CC2)c2cc(N3CCNCC3)c(F)cc2c1=O` [Ciprofloxacin, ciprofloxacin], in assay [5], the “Antibiotic MIC Alone” value is 0.125 µg/mL and 0.25 µg/mL; the “FIC1 (last-but-one column; FIC index of antibiotic + NCL812)” value was 0.75 and 0.525 and 0.625 and 0.562; the “Result” value is “NE (No effect (NE) was defined as 0.5<FICI<4)”.

`CC[C@H]1OC(=O)[C@H](C)[C@@H](O[C@H]2C[C@@](C)(OC)[C@@H](O)[C@H](C)O2)[C@H](C)[C@@H](O[C@@H]2O[C@H](C)C[C@H](N(C)C)[C@H]2O)[C@](C)(O)C[C@@H](C)C(=O)[C@H](C)[C@@H](O)[C@]1(C)O` [Erythromycin, erythromycin] showed an MIC against S. pneumoniae [3] (Streptococcus pneumoniae) of 0.00275 µg/mL (≈ 0.00375 µM). Besides, the “Result” value in the assay on S. aureus strain T3-29 is “NE (No effect (NE) was defined as 0.5<FICI<4)”.

In the case of `CC(=O)NC[C@H]1CN(c2ccc(N3CCOCC3)c(F)c2)C(=O)O1` [Linezolid, linezolid], the “MIC against CLSI quality control range” value against S. aureus ATCC 29213 [6] is recorded as “within the CLSI-established quality control range”.

Turning to `CC1(C)S[C@@H]2[C@H](NC(=O)Cc3ccccc3)C(=O)N2[C@H]1C(=O)O` [Penicillin G, penicillin G], in assay [5], the “Antibiotic MIC Alone” value is 0.125 µg/mL and 0.25 µg/mL; the “Antibiotic MIC With NCL812” value is 0.062 µg/mL and 0.031 µg/mL; the “FIC1 (last-but-one column; FIC index of antibiotic + NCL812)” value was 1 and 0.625; the “Result” value is “NE (No effect (NE) was defined as 0.5<FICI<4)”.

As to `Cc1cc(NS(=O)(=O)c2ccc(N)cc2)no1` [Sulfamethoxazole, sulfamethoxazole], in assay [5], the “Antibiotic MIC Alone” value worked out at 8 µg/mL; the “Antibiotic MIC With NCL812” value was found to be 4 µg/mL; the “FIC1 (last-but-one column; FIC index of antibiotic + NCL812)” value is 0.75 and 1; the “FIC1 = MIC of antibiotic in combination with NCL812/MIC of antibiotic alone” value is recorded as 0.5. Also, the “Result” value in assay [5] was “NE (No effect (NE) was defined as 0.5<FICI<4)”.

On to `CN(C)[C@@H]1C(O)=C(C(N)=O)C(=O)[C@@]2(O)C(O)=C3C(=O)c4c(O)cccc4[C@@](C)(O)[C@H]3C[C@@H]12` [Tetracycline, tetracycline], for which, in the assay with S. aureus strain T3-29, the “FIC1 (last-but-one column; FIC index of antibiotic + NCL812)” value is 0.75 and 0.62; the “Result” value is on record as “NE (No effect (NE) was defined as 0.5<FICI<4)”.

On to gentamicin, for which, in assay [5], the “Antibiotic MIC Alone” value was 1 µg/mL and 0.5 µg/mL; the “Result” value is listed as “NE (No effect (NE) was defined as 0.5<FICI<4)”.

In the case of polymyxin B [reference compound], the “maximal release of ATP” value with S. aureus ATCC 29213 [7] is on record as “approximately 0.34 μM”.
